Measurements reported in paper PMC5601360 (Journal of Medicinal Chemistry, 2017).

What was measured:
human KOP receptor [1] = target: T1, human KOP receptor (Homo sapiens, UniProt P41145); assay: Competition binding assay, CHO-hKOP cell membranes, [3H]U69,593; conditions: for Ki: CHO-hKOP membranes, mean ± SEM, read-out: receptor binding affinity Ki KOP; for selectivity DOP/KOP: Ki ratio DOP/KOP; for selectivity MOP/KOP: Ki ratio MOP/KOP
T1 construct: expressed in transfected cells; host or cells: CHO-hKOP cells (gift of Dr. Lawrence Toll, SRI International)
Method: (§1) CHO cells stably expressing recombinant human KOP, MOP, or DOP receptors (CHO-hKOP, CHO-hMOP, and CHO-hDOP cell lines) were kindly provided by Dr. Lawrence Toll (SRI International, Menlo Park, CA). The CHO-hKOP cell line was maintained in Dulbecco’s Minimal Essential Medium (DMEM) supplemented with fetal bovine serum (FBS, 10%), penicillin/streptomycin (0.1%), L-glutamine (2 mM), and geneticin (400 μg/mL). The CHO-hMOP and CHO-hDOP cell lines were maintained in DMEM/Ham’s F-12 medium supplemented with FBS (10%), penicillin/streptomycin (0.1%), L-glutamine (2 mM), and geneticin (400 μg/mL). Cell cultures were maintained at 37 °C in 5% CO2 humidified air.
(§2) Nonspecific binding was determined using 1–10 μM of the unlabeled counterpart of each radioligand. Assays were performed in 50 mM Tris-HCl buffer (pH 7.4) in a final volume of 1 mL. Cell membranes (15–20 μg) were incubated with the appropriate radioligand and various concentrations of test compound for 60 min at 25 °C. After incubation, reactions were terminated by rapid filtration through Whatman glass fiber filters. Filters were washed three times with 5 mL of ice-cold 50 mM Tris-HCl buffer (pH 7.4) using a Brandel M24R cell harvester (Gaithersburg, MD). Radioactivity retained on the filters was counted by liquid scintillation counting using a Beckman Coulter LS6500 (Beckman Coulter Inc., Fullerton, CA). All binding experiments were performed in duplicate and repeated at least three times. The inhibitory constant Ki values (in nM) were calculated from the competition binding curves by nonlinear regression analysis and the Cheng–Prusoff equation.[16]

human MOP receptor = target: T2, human MOP receptor (Homo sapiens, UniProt P35372); assay: Competition binding assay, CHO-hMOP cell membranes, [3H]DAMGO; conditions: mean ± SEM, read-out: receptor binding affinity Ki MOP
T2 construct: expressed in transfected cells; host or cells: CHO-hMOP cells (gift of Dr. Lawrence Toll, SRI International)
Method: as §1
as §2, with “. Nonspecific” for “Nonspecific”

human DOP receptor = target: T3, human DOP receptor (Homo sapiens, UniProt P41143); assay: Competition binding assay, CHO-hDOP cell membranes, [3H]diprenorphine; conditions: mean ± SEM, read-out: receptor binding affinity Ki DOP
T3 construct: expressed in transfected cells; host or cells: CHO-hDOP cells (gift of Dr. Lawrence Toll, SRI International)
Method: as §1
as §2, with “. Nonspecific” for “Nonspecific”

human KOP receptor [2] = target: T1, human KOP receptor; assay: [35S]GTPγS binding assay using CHO-hKOP cell membranes; assay type: biochemical; conditions: for EC50: CHO-hKOP membranes, mean ± SEM; for Emax: read-out: [35S]GTPγS KOP % stim
Method: The binding of [^35S]GTPγS to membranes from CHO cells stably expressing human KOP receptors (CHO-hKOP cells) was conducted according to the published procedures.[9a],[9b] CHO-hKOP cell membranes were prepared in buffer A (20 mM HEPES, 10 mM MgCl2, and 100 mM NaCl, pH 7.4). Cell membranes (8–15 μg) in buffer A were incubated with 0.05 nM [^35S]GTPγS, 10 μM GDP, and various concentrations of test compound in a final volume of 1 mL for 60 min at 25 °C. Nonspecific binding was determined using 10 μM GTPγS, and the basal binding was determined in the absence of test ligand. Samples are filtered over glass fiber filters and counted as described for binding assays. […] To determine the KOP antagonist activity, a concentration–response curve for U69,593 was obtained by assessing the [^35S]GTPγS binding to CHO-hKOP cell membranes in the presence or absence of test compound, as previously described.[9b] For each compound, the Schild analysis was conducted, utilizing a full agonist–dose response curve in the presence of at least two concentrations of the antagonist. The equilibrium dissociation constant (Ke) was calculated from the equation Ke = [a]/(DR – 1), where “a” is the concentration of antagonist and DR the virtual shift of the agonist concentration–response curve to the right in the presence of a given concentration of antagonist. All experiments were performed in duplicate and repeated at least three times.

[3] = system: acetic acid-induced writhing in CD1 mice; assay: Acetic acid-induced writhing assay in mice after sc administration; assay type: in vivo; conditions: sc; for ED50: Mus musculus, 0.5 h, CD1 mice, inhibition of writhing at 30 min after drug administration, read-out: antinociceptive ED50 (95% CI)
Method: Male CD1 mice (30–35 g, 6–8 weeks old) were obtained from the Center of Biomodels and Experimental Medicine (CBEM) (Innsbruck, Austria) or Charles River (Sulzfeld, Germany). Mice were group-housed in a temperature controlled room with a 12 h light/dark cycle and with free access to food and water. All animal studies were conducted in accordance with ethical guidelines and animal welfare standards according to Austrian regulations for animal research and were approved by the Committee of Animal Care of the Austrian Federal Ministry of Science and Research. Solutions of test compounds were prepared as 1% DMSO solutions in sterile physiological 0.9% saline and further diluted to working doses in saline solution. Test compounds or vehicle (saline) were administered by sc route in a volume of 10 μL/1 g of body weight. All doses are expressed in terms of salts. Separate groups of mice received the respective dose of compound, and individual mice were only used once for behavioral testing. Each experimental group included at least five animals.
Writhing was induced in male CD1 mice by intraperitoneal (ip) injection of a 0.6% acetic acid aqueous solution as described previously.[9a] Groups of mice were administered sc different doses of test compound or saline (control), and then 5 min prior to testing (25 min after drug or saline) each animal received an ip injection of acetic acid solution. Each mouse was placed in individual transparent Plexiglas chambers, and the number of writhes was counted during a 10 min observation period. […] For the antagonism studies, nor-BNI (20 mg/kg) was sc administered 24 h before 2 (5 mg/kg) and 17 (10 mg/kg) was sc administered 15 min before U50,488 (2 mg/kg).

[4] = percentage stimulation relative to the KOP full agonist U69,593

Structure (SMILES)	Ki (human KOP receptor [1]) [nM]	selectivity DOP/KOP (human KOP receptor [1])	selectivity MOP/KOP (human KOP receptor [1])	Ki (human MOP receptor) [nM]	Ki (human DOP receptor) [nM]	EC50 (human KOP receptor [2]) [nM]	Emax (human KOP receptor [2]; [4]) [%]	ED50 [3] [mg/kg]	[35S]GTPγS KOP % stim (human KOP receptor [2]; [4]) [%]	lower KOP affinity vs compound 4 (human KOP receptor [1]; Ki comparison)	decrease in in vitro agonist potency vs compound 3 (human KOP receptor [2]; EC50 comparison)	reduction in antinociceptive potency vs compound 3 ([3]; ED50 comparison)
Cl.Oc1cccc(CCN(CCc2ccccc2)Cc2ccccc2)c1 [Compound 5, 3-[2-[(Benzyl)(phenethyl)amino]ethyl]phenol Hydrochloride]	0.71 ± 0.25	2623	652	463 ± 95	1860 ± 501	4.65 ± 1.63	≥ 80	1.21				
Cl.Oc1cccc(CCN(CCc2ccccc2)C2CCC2)c1 [Compound 6, 3-[2-[(Cyclobutyl)(phenethyl)amino]ethyl]phenol Hydrochloride]	10.3 ± 1.2	344	65	670 ± 174	3540 ± 38	46.1 ± 13.9	50.7 ± 5					
CC(C)CCN(CCc1ccccc1)CCc1cccc(O)c1.Cl [Compound 7, 3-[2-[(Isoamyl)(phenethyl)amino]ethyl]phenol Hydrochloride]	2.69 ± 0.43	1020	96	259 ± 86	2740 ± 677	22.1 ± 3.1	74.7 ± 3.6	2.78				
Cl.Oc1cccc(CCN(CCc2cccc(O)c2)CC2CCC2)c1 [Compound 8, 3,3′-[2,2′-(Cyclobutylmethylazanediyl)bis(ethane-2,1-diyl)]diphenol Hydrochloride]	0.38 ± 0.09	8789	605	230 ± 43	3340 ± 844	4.44 ± 1.36	71.1 ± 5.2	1.71				
Cl.Oc1cccc(CCN(CCc2cccc(O)c2)CC2CC2)c1 [Compound 9, 3,3′-[2,2′-(Cyclopropylmethylazanediyl)bis(ethane-2,1-diyl)]diphenol Hydrochloride]	4.62 ± 0.11	617	137	631 ± 215	2850 ± 720	20.6 ± 0.6	51.3 ± 7.6	4.73				
C=CCN(CCc1cccc(O)c1)CCc1cccc(O)c1.Cl [Compound 10, 3,3′-[2,2′-(Allylazanediyl)bis(ethane-2,1-diyl)]diphenol Hydrochloride]	19.1 ± 0.6	39	19	358 ± 28	738 ± 16	154 ± 62	37.5		37.5 ± 0.6			
Cl.Oc1cccc(CCN(CCc2cccc(O)c2)CC2CCCCC2)c1 [Compound 11, 3,3′-[2,2′-(Cyclohexylmethylazanediyl)bis(ethane-2,1-diyl)]diphenol Hydrochloride]	0.14 ± 0.04	10229	1193	167 ± 52	1430 ± 506	17.6 ± 7.1	≥ 80	0.95		about 2 fold		
Cl.Oc1cccc(CCN(CCc2cccc(O)c2)CC2CCCC2)c1 [Compound 12, 3,3′-[2,2′-(Cyclopentylmethylazanediyl)bis(ethane-2,1-diyl)]diphenol Hydrochloride]	0.31 ± 0.04	8952	1884	584 ± 119	2780 ± 545	13.7 ± 3.5	≥ 80	1.19			about 3 fold	about 2 fold
CC(C)CCN(CCc1cccc(O)c1)CCc1cccc(O)c1.Cl [Compound 13, 3,3′-[2,2′-(Isoamylazanediyl)bis(ethane-2,1-diyl)]diphenol Hydrochloride]	2.1 ± 0.26	699	100	211 ± 17	1470 ± 147	16.6 ± 0.7	65.6 ± 3.4	2.63				
C=CCN(CCc1ccc(O)cc1)CCc1cccc(O)c1 [Compound 16]	43.5 ± 1.5	25	4	192 ± 17	1100 ± 485	248 ± 89	28.5					
c1ccc(CCN(CCc2ccccc2)CC2CCC2)cc1 [Compound 22, N-(Cyclobutylmethyl)-N-phenethyl-2-phenylethanamine]	79.1 ± 12.5	28	13	1060 ± 263	2180 ± 881	359 ± 116	≥ 80					
